# In patent publication EP0548370A1, “DRUG FOR PREVENTING AND/OR TREATING ALLERGIC DISEASE” (MOCHIDA PHARMACEUTICAL CO., LTD., priority 1991, dated 1993):
# What was measured:
# rat experimental asthma = experiment: Rat experimental asthma, airway resistance by over flow technique; assay type: in vivo, Wister line male rats
# Protocol: That is, 2 x 10¹⁰ cells of inactivated Bordetella pertussis and 1 mg of ovalbumin were respectively administered intraperitoneally and intramuscularly to 5 individuals per group of Wister line male rats (body weight, 194 - 210 g) to effect sensitization. Immediately after the sensitization, a 5% acacia aqueous solution containing a varied concentration of tofisopam or a 5% acacia aqueous solution containing no tofisopam (control) was administered orally once a day, 14 times in total.
# After 14 days of the sensitization, ovalbumin was administered to the sensitized rats intravenously at a dose of 0.5 mg/kg, and the increasing degree of airway resistance was measured by means of the over flow technique (Arch. Exp. Pathol. Pharmak., vol.195, pp.71 - 74, 1974). The thus obtained inhibition rate of airway contraction, when the result of the control test is defined as 100, is shown in Table 4.
# chronic urticaria [1] = conditions: of 2 cases; cited from earlier work
# IgG₁ antibodies = experiment: Effect on IgG₁ antibody production in ovalbumin-sensitized mice (ELISA); assay type: in vivo, BALB/c line male mice; conditions: for IgG₁ antibody yield (% control): 7 times, blood 14 days after sensitization
# Protocol: (§1) That is, 4 mg of aluminum hydroxide to which 10 µg of ovalbumin has been adsorbed was intraperitoneally administered to 5 individuals per group of BALB/c line male mice (body weight, 21 - 25 g) to effect sensitization. Immediately after the sensitization, a 5% acacia aqueous solution containing a varied concentration of tofisopam or a 5% acacia aqueous solution containing no tofisopam (control) was administered orally once a day, 7 times in total. After 14 days of the sensitization, blood samples were collected to measure produced amounts of various types of immunoglobulin by means of enzyme-linked immunosorbent assay (ELISA). Production yields of IgG₁ and IgM antibodies were measured in the following manner. That is, a blood plasma sample was added to immobilized anti-mouse IgG₁ or IgM antibodies to allow IgG₁ antibodies or IgM antibodies to be linked, followed by the reaction with horseradish peroxidase-labeled anti-mouse IgG₁ antibodies or horseradish peroxidase-labeled anti-mouse IgM antibodies, and then the amount of produced IgG₁ or IgM antibodies was measured based on the horseradish peroxidase activity as a marker.
# IgE antibodies = experiment: Effect on IgE antibody production in ovalbumin-sensitized mice (ELISA); assay type: in vivo, BALB/c line male mice; conditions: for IgE antibody yield (% control): 7 times, blood 14 days after sensitization
# Protocol: That is, 4 mg of aluminum hydroxide to which 10 μg of ovalbumin has been adsorbed was intraperitoneally administered to 5 individuals per group of BALB/c line male mice (body weight, 21 - 25 g) to effect sensitization. Immediately after the sensitization, a 5% acacia aqueous solution containing a varied concentration of tofisopam or a 5% acacia aqueous solution containing no tofisopam (control) was administered orally once a day, 7 times in total. After 14 days of the sensitization, blood samples were collected to measure produced amounts of various types of immunoglobulin by means of enzyme-linked immunosorbent assay (ELISA). Production yield of IgE antibodies was measured in the following manner. That is, a blood plasma sample was added to immobilized anti-mouse IgE antibodies to allow IgE to be linked, followed by the reaction with biotin-labeled anti-mouse IgE antibodies and avidin-labeled horseradish peroxidase, and then the amount of produced IgE antibodies was measured based on the horseradish peroxidase activity as a marker (Men'eki-to-[…], vol.15, pp.211 - 216, 1988).
# [2] = system: psychogenic bronchial asthma; conditions: of 26 cases; with simultaneous β₂ stimulant and theophylline preparation; cited from earlier work
# [3] = in vivo; cited from earlier work
# IgM antibodies = experiment: Effect on IgM antibody production in ovalbumin-sensitized mice (ELISA); assay type: in vivo, BALB/c line male mice; conditions: for IgM antibody yield (% control): 7 times, blood 14 days after sensitization
# Protocol: as §1
# bronchial asthma = conditions: 16 cases of bronchial asthma patients; cited from earlier work
# chronic urticaria [4] = conditions: of 14 cases; with antihistaminic drug, Chinese orthodox medicine and the like; cited from earlier work
# [5] = 100 mg/kg/day orally once a day
# [6] = 300 mg/kg/day orally once a day
# [7] = 100 or 300 mg/kg/day orally for 7 days
structure (smiles),measurement,setting,value
"CCC1C(C)=NN=C(c2ccc(OC)c(OC)c2)c2cc(OC)c(OC)cc21 (stereo not drawn) [Tofisopam, 1-(3,4-dimethoxyphenyl)-5-ethyl-7,8-dimethoxy-4-methyl-5H-2,3-benzodiazepine]",airway reaction,rat experimental asthma; 100 mg/kg/day orally for 14 days,can inhibit the airway reaction
same,Inhibition rate (%) of airway contraction,"rat experimental asthma; 100 mg/kg/day orally once a day, 14 times, ovalbumin 0.5 mg/kg intravenously 14 days after sensitization",27%
same,cases improved significantly,chronic urticaria [1],1
same,IgG₁ antibody yield (% control),IgG₁ antibodies; [5],113 % control
same,IgG₁ antibody yield (% control),IgG₁ antibodies; [6],111 % control
same,influence upon the production of IgG₁ antibodies,IgG₁ antibodies; [7],hardly exerts influence
same,IgE antibody yield (% control),IgE antibodies; [5],66 % control
same,IgE antibody yield (% control),IgE antibodies; [6],56 % control
same,inhibition at 100 mg/kg,"IgE antibodies; Mus musculus, po, 168 h, 100 mg/kg/day orally for 7 days",~34%
same,inhibition at 300 mg/kg,"IgE antibodies; Mus musculus, po, 168 h, 300 mg/kg/day orally for 7 days",~44%
same,cases improved,[2],one
same,"acute, subacute and chronic toxicities",[3],confirmed safety of the compound
same,IgM antibody yield (% control),IgM antibodies; [5],97 % control
same,IgM antibody yield (% control),IgM antibodies; [6],87 % control
same,influence upon the production of IgM antibodies,IgM antibodies; [7],hardly exerts influence
same,efficacy in objective findings,bronchial asthma,25%
same,efficacy in subjective symptoms,bronchial asthma,50%
same,cases improved,chronic urticaria [4],8
